As a reminder, the IC50 is the concentration at which inhibition is half-maximal.

Results on eleven compounds are retold here after ChEMBL document CHEMBL1134854, “Synthesis and biological evaluation of N-(7-indolyl)-3-pyridinesulfonamide derivatives as potent antitumor agents” (Bioorg Med Chem Lett, 2002).

Each structure is given as a SMILES string. “And” between values parts separate entries of the source, which are not always exact repeats. Equal entries are not always repeated.

Assay [1] deals with Colon cancer cell line. Briefly: In vivo activity as average tumor volume on day 9/average tumor volume on day 1; drug administered intraperitoneal. The assay is classed as functional, Homo sapiens.
Assay [2] relates to Colon cancer cell line. Description: In vivo activity as average tumor weight on day 22/average tumor weight in control group on day 22*100; drug administered intraperitoneal. Format: functional, Homo sapiens.
For assay [3], the species on record is Mus musculus. Description: Number of deaths per total number of aminals tested; 0/5. The assay is classed as functional.
The subject of assay [4] is HCT-116. Briefly: Inhibitory concentration in vitro against HCT116 human colon cancer cells were determined for 72 h. The assay is classed as functional, cell-based. The conditions noted are these: HCT-116, 72 h.
The test system of assay [5] is Colon cancer cell line. Briefly: In vivo activity as average tumor weight on day 22/average tumor weight in control group on day 22*100; drug administered per oral. Format: functional, Homo sapiens.
In assay [6] the test system is Colon cancer cell line. Briefly: In vivo activity as average tumor volume on day 9/average tumor volume on day 1; drug administered per oral. The assay is classed as functional, Homo sapiens.
In assay [7] the test system is Colon cancer cell line. Description: In vivo activity as average tumor volume on day 9/average tumor volume on day 1; drug administered intra venously. Format: functional, Homo sapiens.
The subject of assay [8] is Colon cancer cell line. Description: In vivo activity as average tumor weight on day 22/average tumor weight in control group on day 22*100; drug administered intra venously. The assay is classed as functional, Homo sapiens.
Assay [9] concerns Colon cancer cell line. Briefly: In vivo activity as average tumor volume on day 9/average tumor volume on day 1 drug administered per oral. The assay is classed as functional, Homo sapiens.

With `O=S(=O)(Nc1cccc2c(Cl)c[nH]c12)c1cccnc1`, in assay [1], the Day 9-RTV was found to be 3.4. In addition, in assay [2], the “Day 22-T/C” value is on record as 70%. For the same compound, the Deaths/total in assay [3] amounted to 0%. For the same compound, 260 nM corresponded to half-maximal inhibition in assay [4] (IC50).
For the compound `Cc1cncc(S(=O)(=O)Nc2cccc3c(C#N)c[nH]c23)c1`, the “Day 22-T/C” value in assay [5] is 106%; in assay [2], 30%. Further, the figures for the Day 9-RTV in assay [6] and in assay [1] were 3.4 and 0.52, respectively. The compound further showed a Deaths/total in assay [3] of 0%. Besides, the IC50 in assay [4] was 190 nM.
Take `O=S(=O)(Nc1cccc2c(Cl)c[nH]c12)c1ccc(NCCO)nc1`: in [1], the Day 9-RTV is 4.3. In addition, the “Day 22-T/C” value in [2] came to 89%. In assay [3], this compound showed a Deaths/total of 0%. In assay [4], this compound registered an IC50 of 650 nM.
Turning to `NS(=O)(=O)c1ccc(S(=O)(=O)Nc2cccc3c(Cl)c[nH]c23)cn1`, the Day 9-RTV was 0.1 and 0.29 in [1]; 0.15 in assay [7]. The “Day 22-T/C” value is 12% and 23% in assay [2]; 8% in assay [8]. In assay [3], the Deaths/total came to 0%. This compound gave an IC50 in assay [4] of 290 nM.
In the case of `O=S(=O)(Nc1cccc2c(Cl)c[nH]c12)c1ccc(O)nc1`, in [1], the Day 9-RTV worked out at 3. Also, the “Day 22-T/C” value in [2] came to 66%. The compound also returned a Deaths/total in assay [3] of 0%. In assay [4], this compound had an IC50 of 800 nM.
The matching figures for `N#Cc1c[nH]c2c(NS(=O)(=O)c3cccnc3)cccc12`: 2.6, 65%, 0% and 230 nM.
The matching figures for `CNc1ccc(S(=O)(=O)Nc2cccc3c(Cl)c[nH]c23)cn1`: 0.24, 38%, 0% and 860 nM.
As to `Cc1cncc(S(=O)(=O)Nc2cccc3c(Cl)c[nH]c23)c1`, the Day 9-RTV in [1] came to 3.7. Moreover, the “Day 22-T/C” value in [2] is on record as 82%. In assay [3], the Deaths/total stood at 0%. In assay [4], this compound showed an IC50 of 220 nM.
For the compound `N#Cc1c[nH]c2c(NS(=O)(=O)c3ccc(N)nc3)cccc12`, the Day 9-RTV in [9] came out at 2.3; in assay [1] it was 1.5. The results for the “Day 22-T/C” value in [5] and in [2] were 75% and 35%, respectively. In assay [3], this compound gave a Deaths/total of 0%. Besides, in assay [4], the midpoint of inhibition, the IC50, lay at 640 nM.
For `Nc1ccc(S(=O)(=O)Nc2cccc3c(Cl)c[nH]c23)cn1`, the “Day 22-T/C” value worked out at 12% in assay [5] and 26% in assay [2]. Besides, the Day 9-RTV in [6] turned out to be 0.19; in assay [1], 0.3. The same compound yielded a Deaths/total in [3] of 0%. Moreover, half-maximal inhibition in assay [4] (IC50) required 710 nM.
For the compound `CC(C)Nc1ccc(S(=O)(=O)Nc2cccc3c(Cl)c[nH]c23)cn1`, the Day 9-RTV in assay [1] was 0.28 and 0.9. The same compound yielded a Deaths/total in [3] of 0%. Moreover, the IC50 in [4] stood at 1300 nM.
